Laboratory results reported in ChEMBL document CHEMBL1909046, “DrugMatrix in vitro pharmacology data”.

Tests used:
Adenosine receptor A1 = biological target: T1, Adenosine receptor A1 (Homo sapiens, UniProt P30542); type: cell membranes, CHO, Membrane;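 note: radioligand binding assay at the adenosine A1 receptor, with DPCPX serving as the labelled ligand; in other assays of this panel Not Active means under 50% inhibition at 10 µM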
T1 sequence (P30542 whole entry): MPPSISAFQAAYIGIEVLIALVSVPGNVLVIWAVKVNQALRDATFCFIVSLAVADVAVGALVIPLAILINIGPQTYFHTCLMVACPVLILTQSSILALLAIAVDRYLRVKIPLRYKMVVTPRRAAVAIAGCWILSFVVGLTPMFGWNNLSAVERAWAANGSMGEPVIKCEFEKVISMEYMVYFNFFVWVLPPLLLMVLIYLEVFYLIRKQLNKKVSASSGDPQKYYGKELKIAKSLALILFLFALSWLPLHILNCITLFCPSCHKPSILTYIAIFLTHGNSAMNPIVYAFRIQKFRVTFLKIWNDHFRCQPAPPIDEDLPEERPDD

Glycine receptor = Glycine receptor (Rattus norvegicus, UniProt P22771+P24524+P07727+P20781); type: cell membranes, Wistar, Spinal cord, Membrane; note: in other assays of this panel Not Active means under 50% inhibition at 10 µM
[1] = DRUGMATRIX: Potassium Channel [KATP] radioligand binding (ligand: [3H] Glyburide); type: cell membranes, Membrane; conditions: hit-t15; Not Active = under 50% inhibition at 10 µM
[2] = biological target: T2, Cysteinyl leukotriene receptor 1 (Homo sapiens, UniProt Q9Y271); type: cell membranes, Membrane; conditions: cho-k1; note: in other assays of this panel Not Active means under 50% inhibition at 10 µM
T2 sequence (Q9Y271 whole entry): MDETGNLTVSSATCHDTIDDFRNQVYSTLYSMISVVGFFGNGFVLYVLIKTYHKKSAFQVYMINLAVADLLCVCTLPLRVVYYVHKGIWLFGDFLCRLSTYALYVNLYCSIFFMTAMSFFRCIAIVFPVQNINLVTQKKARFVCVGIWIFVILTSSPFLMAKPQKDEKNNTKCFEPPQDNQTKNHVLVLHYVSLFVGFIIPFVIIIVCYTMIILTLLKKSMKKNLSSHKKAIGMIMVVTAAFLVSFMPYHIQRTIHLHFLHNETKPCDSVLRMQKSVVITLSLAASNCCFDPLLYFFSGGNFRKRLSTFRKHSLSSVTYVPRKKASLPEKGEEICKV

[3] = DRUGMATRIX: Atrial Natriuretic Factor (ANF) radioligand binding (ligand: [125I] ANF (rat)); type: cell membranes, Cavia porcellus, Dunkin-Hartley, Adrenal gland, Membrane; conditions: Not Active = under 50% inhibition at 10 µM
[4] = biological target: 5-hydroxytryptamine receptor 6 (Homo sapiens, UniProt P50406); type: cell membranes, HeLa, Membrane; conditions: for Ki: read-out: Ki; for all read-outs here: in other assays of this panel Not Active means under 50% inhibition at 10 µM
Sequence of 5-hydroxytryptamine receptor 6 (P50406 whole entry): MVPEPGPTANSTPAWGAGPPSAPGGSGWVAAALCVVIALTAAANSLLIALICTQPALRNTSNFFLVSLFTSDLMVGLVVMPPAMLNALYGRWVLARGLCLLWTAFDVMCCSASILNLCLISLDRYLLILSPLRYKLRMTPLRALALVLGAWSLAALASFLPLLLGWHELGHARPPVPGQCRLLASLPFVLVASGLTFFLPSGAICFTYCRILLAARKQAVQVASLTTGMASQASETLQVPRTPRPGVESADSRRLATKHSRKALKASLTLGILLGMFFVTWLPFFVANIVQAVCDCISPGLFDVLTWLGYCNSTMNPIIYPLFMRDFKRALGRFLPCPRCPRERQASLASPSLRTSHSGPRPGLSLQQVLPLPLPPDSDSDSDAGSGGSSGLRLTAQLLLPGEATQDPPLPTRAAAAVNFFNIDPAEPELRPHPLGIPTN

Nitric oxide synthase 1 = Nitric oxide synthase 1 (Rattus norvegicus, UniProt P29476); type: tissue-based, Cerebellum; note: in other assays of this panel Not Active means under 50% inhibition at 10 µM
Sequence of Nitric oxide synthase 1 (P29476 whole entry): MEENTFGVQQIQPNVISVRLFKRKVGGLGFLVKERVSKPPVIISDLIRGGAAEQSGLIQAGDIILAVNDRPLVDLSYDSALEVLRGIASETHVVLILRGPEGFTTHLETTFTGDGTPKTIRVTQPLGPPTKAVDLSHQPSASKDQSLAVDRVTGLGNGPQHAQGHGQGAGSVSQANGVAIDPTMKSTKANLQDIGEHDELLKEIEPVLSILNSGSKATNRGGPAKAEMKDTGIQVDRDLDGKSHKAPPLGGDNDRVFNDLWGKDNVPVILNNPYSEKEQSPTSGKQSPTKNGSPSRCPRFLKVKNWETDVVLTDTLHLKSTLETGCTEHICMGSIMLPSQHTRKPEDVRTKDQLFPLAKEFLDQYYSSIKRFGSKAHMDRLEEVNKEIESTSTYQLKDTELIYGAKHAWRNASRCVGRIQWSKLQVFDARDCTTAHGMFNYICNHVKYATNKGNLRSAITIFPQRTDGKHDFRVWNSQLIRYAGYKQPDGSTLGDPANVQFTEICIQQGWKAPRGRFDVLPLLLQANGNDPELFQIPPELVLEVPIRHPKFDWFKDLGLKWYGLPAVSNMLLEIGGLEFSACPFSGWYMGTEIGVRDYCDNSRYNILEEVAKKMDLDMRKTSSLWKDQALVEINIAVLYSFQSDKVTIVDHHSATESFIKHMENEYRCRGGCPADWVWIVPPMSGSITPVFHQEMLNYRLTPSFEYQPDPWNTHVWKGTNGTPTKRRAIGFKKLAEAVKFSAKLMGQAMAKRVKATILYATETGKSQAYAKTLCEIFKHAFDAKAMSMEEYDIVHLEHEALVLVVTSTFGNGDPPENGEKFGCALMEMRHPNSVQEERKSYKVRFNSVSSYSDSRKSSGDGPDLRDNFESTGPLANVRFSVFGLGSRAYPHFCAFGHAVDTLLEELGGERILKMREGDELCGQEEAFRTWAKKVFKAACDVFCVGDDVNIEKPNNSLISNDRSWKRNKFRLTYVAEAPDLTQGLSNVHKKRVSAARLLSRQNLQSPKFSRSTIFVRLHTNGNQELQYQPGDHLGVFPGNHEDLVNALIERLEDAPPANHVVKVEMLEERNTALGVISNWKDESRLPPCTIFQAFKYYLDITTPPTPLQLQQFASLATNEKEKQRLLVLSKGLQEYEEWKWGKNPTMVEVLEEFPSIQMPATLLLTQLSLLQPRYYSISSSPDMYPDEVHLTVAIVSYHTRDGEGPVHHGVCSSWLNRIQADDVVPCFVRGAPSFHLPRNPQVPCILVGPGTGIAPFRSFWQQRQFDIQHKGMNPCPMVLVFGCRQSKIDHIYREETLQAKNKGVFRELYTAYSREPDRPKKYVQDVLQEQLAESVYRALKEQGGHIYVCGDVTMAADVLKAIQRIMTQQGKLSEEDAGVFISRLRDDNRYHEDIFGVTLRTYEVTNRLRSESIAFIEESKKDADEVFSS

Row | Structure (SMILES) | IC50 (Adenosine receptor A1; cho) | IC50 (Glycine receptor) | IC50 [1] | Ki [1] | IC50 [2] | IC50 [3] | Ki [3] | IC50 ([4]; hela) | IC50 (Nitric oxide synthase 1) | IC50 ([4]; read-out: IC50) [nM] | Ki [4] [nM] | IC50 (Adenosine receptor A1; read-out: IC50) [nM] | Ki (Adenosine receptor A1; read-out: Ki) [nM]
1 | CN(CCOc1ccc(CC2SC(=O)NC2=O)cc1)c1ccccn1 (stereo unspecified) [ROSIGLITAZONE] | Not Active | Not Active | Not Active | Not Active | Not Active | Not Active | Not Active | Not Active | Not Active | – | – | – | –
2 | CC(=O)O[C@H]1C[C@@H]2CC[C@@H]3[C@H](CC[C@@]4(C)[C@H]3C[C@H]([N+]3(C)CCCCC3)[C@@H]4OC(C)=O)[C@@]2(C)C[C@@H]1N1CCCCC1.[Br-] [VECURONIUM BROMIDE] | Not Active | Not Active | Not Active | Not Active | Not Active | Not Active | Not Active | Not Active | Not Active | – | – | – | –
3 | Nc1ccc(S(=O)(=O)Nc2ncccn2)cc1 [SULFADIAZINE] | Not Active | Not Active | Not Active | Not Active | Not Active | Not Active | Not Active | Not Active | Not Active | – | – | – | –
4 | CCS(=O)(=O)CCn1c([N+](=O)[O-])cnc1C [TINIDAZOLE] | Not Active | Not Active | Not Active | Not Active | Not Active | Not Active | Not Active | Not Active | Not Active | – | – | – | –
5 | Nc1ccc(S(=O)(=O)Nc2nccs2)cc1 [SULFATHIAZOLE] | Not Active | Not Active | Not Active | Not Active | Not Active | Not Active | Not Active | Not Active | Not Active | – | – | – | –
6 | O=C(O)C(Cl)(Cl)Cl [TRICHLOROACETIC ACID] | Not Active | Not Active | Not Active | Not Active | Not Active | Not Active | Not Active | Not Active | Not Active | – | – | – | –
7 | C=C(C)[C@H]1Cc2c(ccc3c2O[C@@H]2COc4cc(OC)c(OC)cc4[C@@H]2C3=O)O1 [ROTENONE] | Not Active | Not Active | Not Active | Not Active | Not Active | Not Active | Not Active | – | Not Active | 870 | 404 | – | –
8 | C#CCN(C)[C@H](C)Cc1ccccc1 [SELEGILINE] | Not Active | Not Active | Not Active | Not Active | Not Active | Not Active | Not Active | Not Active | Not Active | – | – | – | –
9 | CC(C)OC(=O)C(C)(C)Oc1ccc(C(=O)c2ccc(Cl)cc2)cc1 [FENOFIBRATE] | Not Active | Not Active | – | – | Not Active | – | – | Not Active | Not Active | – | – | – | –
10 | CCN(CC)CC#CCOC(=O)C(O)(c1ccccc1)C1CCCCC1 (stereo unspecified) [OXYBUTYNIN] | Not Active | Not Active | – | – | Not Active | – | – | Not Active | Not Active | – | – | – | –
11 | CC(=O)Nc1nnc(S(N)(=O)=O)s1 [ACETAZOLAMIDE] | Not Active | Not Active | – | – | Not Active | – | – | Not Active | Not Active | – | – | – | –
12 | COc1cc(N)nc2[nH]c(-c3ccc(F)cc3)c(-c3ccncc3)c12 | – | Not Active | Not Active | Not Active | Not Active | Not Active | Not Active | Not Active | Not Active | – | – | 887 | 518
13 | CC[C@@H](CO)NC(=O)[C@@H]1C=C2c3cccc4c3c(cn4C)C[C@H]2N(C)C1 [METHYSERGIDE] | Not Active | Not Active | – | – | Not Active | – | – | – | Not Active | 162 | 75 | – | –
14 | C[C@]12CC[C@H]3[C@@H](CCC4=CC(=O)CC[C@@]43C)[C@@H]1CC[C@@H]2O [TESTOSTERONE] | Not Active | Not Active | – | – | Not Active | Not Active | Not Active | Not Active | Not Active | – | – | – | –
15 | O=c1[nH]c2ccccc2n1CCCN1CCC(n2c(=O)[nH]c3cc(Cl)ccc32)CC1 [DOMPERIDONE] | Not Active | Not Active | – | – | Not Active | – | – | Not Active | Not Active | – | – | – | –
